The term GI50 denotes the concentration giving 50% growth inhibition. Read a low GI50 as greater sensitivity of the cells. For orientation: IC50 means the concentration needed to halve the response being measured. High values mean a need for much substance, low ones inhibition by little substance. In general, Kd refers to the concentration at which binding is half-saturated. Higher therefore signals lower affinity.

Experimental findings from US20260028338A1, “HETEROBIFUNCTIONAL COMPOUNDS AND METHODS OF TREATING DISEASE” (Halda Therapeutics OpCo, Inc., priority 2023, published 2026) are described below.

The test system of assay [1] is T-Rex 293 cell line SC cells having increased expression of BCL6 protein. As to the kind of experiment: Cellular growth inhibition assay, T-Rex 293 SC cells with doxycycline (CellTiter-Glo). Format: cell-based. Particulars: T-Rex 293 SC cells with 10 ng/mL doxycycline (increased BCL6 expression), 72 hours, CellTiter-Glo 2.0. How it is done:
(§1) Exemplary compounds were tested for ability to inhibit the proliferation of the following types of cells: (i) a T-Rex 293 cell line having increased expression of BCL6 protein due to exposure of doxycycline and (ii) a T-Rex 293 cell line lacking increased expression of BCL6 protein.
(§2) The following types of cells were prepared for this experiment: (i) a T-Rex 293 cell line having increased expression of BCL6 protein due to exposure to doxycycline and (ii) a T-Rex 293 cell line lacking increased expression of BCL6 protein. Ability of the test compounds to inhibit proliferation of the foregoing cell types was evaluated according to the procedures set forth below.
(§3) The doxycycline-inducible BCL6 protein expressing cell line was established using the following protocol: T-Rex 293 cells were purchased from Invitrogen (Cat #R71007) and transfected using Lipofectamine 2000 with the wild-type BCL6 protein sequence cloned into the pcDNA4/TO vector. Transfected cells were selected using 400 μg/mL Zeocin (Invitrogen Cat #R25001). Following selection, single clones were raised and maintained in Dulbecco's Modified Eagle Medium (DMEM) supplemented with 10% w/w Tetracycline-free fetal bovine serum (FBS) and 250 μg/mL Zeocin. Clones were analyzed for expression of BCL6 protein in the presence and absence of 10 ng/mL doxycycline (Sigma Cat #D9891), and a single doxycycline-inducible clone (hereinafter “SC”) was selected for use in downstream assays.
(§4) The SC cells were seeded on poly-D-lysine coated, black clear-bottom 384-well plates at 2500/well, in 25 μL Dulbecco's Modified Eagle Medium (DMEM) supplemented with 10% w/w Tetracycline-free fetal bovine serum (FBS) and 1% w/w pen-strep, with or without 10 ng/mL doxycycline. Pen-Strep is a commercially available mixture of penicillin G and streptomycin, which is used in mammalian cell culture media to prevent bacterial contamination. Dulbecco's Modified Eagle Medium (DMEM) supplemented with 10% w/w Tetracycline-free fetal bovine serum (FBS) and 1% w/w pen-strep, with or without 10 ng/mL doxycycline is herein referred to as Treatment Medium. Following seeding of cells in the plates, the plates were spun at 300×g for 30 seconds, then equilibrated to room temperature for 30 minutes, and then deposited in a humidified tissue culture incubator maintained at 37° C. with 5% CO2.
(§5) At 24 hours after seeding of the cells, dilutions of test compound were prepared in DMSO and dissolved in Treatment Medium, to achieve a final DMSO concentration of 0.5% w/w, thereby providing the Test Compound Solution. A 25 μL aliquot of the Test Compound Solution was added to cells in the well plates. An equal volume of a solution containing DMSO and Treatment Medium was used as a negative control. Following treatment of cells with Test Compound Solution or said equal volume of a solution containing DMSO and Treatment Medium, the plates were spun at 300×g for 30 seconds, and then left in an incubator for 72 hours.
(§6) At the end of the treatment duration, cell viability was quantified with CellTiter-Glo 2.0 reagent (Promega Cat #G9243). For this purpose, plates were equilibrated to room temperature for 30 minutes, and then 25 μL of CellTiter-Glo 2.0 reagent was added to cells in the plate wells. Plates were then agitated on a shaker for two minutes at 500 rpm and subsequently incubated at room temperature for 10 minutes. Following incubation, the plates were spun at 3000×g for 30 seconds, then sealed with an optical adhesive cover, and luminescence readings were measured with an EnVision Plate Reader (Perkin Elmer).
(§7) Data was normalized using zero luminescence for baseline. A four-parameter non-linear regression curve fit was applied to dose-response data in GraphPad Prism data analysis software to determine the half-maximal growth inhibitory concentration (GI50) for each test compound.

In assay [2] the test system is T-Rex 293 cell line SC cells lacking increased expression of BCL6 protein. The experiment in a line: Cellular growth inhibition assay, T-Rex 293 SC cells without doxycycline (CellTiter-Glo). Format: cell-based. Particulars: T-Rex 293 SC cells not exposed to doxycycline (no increased BCL6 expression), 72 hours, CellTiter-Glo 2.0. How it is done:
as §1, §2, §3, §4, §5, §6, §7
(ATP-based viability assays read luminescence as a measure of living cells.)

For a further assay, the system named is Farage cell line. As to the kind of experiment: Cellular growth inhibition assay, Farage cells (CellTiter-Glo). Particulars: Farage cell line (DLBCL), 72 hours, CellTiter-Glo 2.0. Format: cell-based. How it is done: Exemplary compounds were tested for ability to inhibit the proliferation of Su-DHL-4 and Farage cells. Su-DHL-4 and Farage cells are commercially available diffuse large B cell lymphoma cell lines (DLBCL).
Su-DHL-4 and Farage cells were purchased from American Type Cell Culture (ATCC Cat #CRL-2957/CRL-2630) and then seeded on poly-D-lysine coated, black clear-bottom 384-well plates at 3000/well in 25 μL Roswell Park Memorial Institute media (RPMI-1640) supplemented with 10% w/w Fetal bovine serum (FBS) and 1% w/w Pen-Strep. Pen-Strep is a commercially available mixture of penicillin G and streptomycin, which is used in mammalian cell culture media to prevent bacterial contamination. Roswell Park Memorial Institute media (RPMI-1640) supplemented with 10% w/w fetal bovine serum (FBS), and 1% w/w Pen-Strep is herein referred to as Treatment Medium. Following seeding of cells in the plates, the plates were spun at 300×g for 30 seconds, then equilibrated to room temperature for 30 minutes, and then deposited in a humidified tissue culture incubator maintained at 37° C. with 5% CO2.
as §5, §6, §7

Assay [3] has as its target T1, His-tagged BRD4 BD2 (333-460) (Homo sapiens, UniProt O60885).
T1 construct: The same assay was developed for His-tagged BRD4 BD2 (333-460) and biotinylated histone H4K5/8/12/16(Ac) peptide
As to the kind of experiment: AlphaLISA competition assay, BRD4 BD2. Format: binding. The following applies: BRD4-BD2, AlphaLISA competition with biotinylated histone H4K5/8/12/16(Ac) peptide, 20 nM. How it is done: (§8) Exemplary compounds were tested for ability to bind to bromodomain-containing protein 4 (BRD4).
(§9) Compounds were tested using a developed AlphaLISA competition assay. Briefly, His-tagged BRD4 BD1 (46-168) and biotinylated histone H4K5/8/12/16(Ac) peptide (ANASPEC, AS-64989-1) were incubated in 20 mM HEPES pH 7.5, 100 mM NaCl, 0.5 mM TCEP, 0.1% BSA, 0.02% CHAPS at a final concentration of 10 nM. Test compounds were serially diluted ten times in the same buffer and were added to the BRD4-peptide mixture for 1 h incubation at room temperature. Following incubation, Streptavidin AlphaLISA acceptor beads (PerkinElmer, AL125M) were added to BRD4-peptide-compound samples to a final concentration of 0.01 mg/mL for a 0.5 h incubation at room temperature in the dark. Following incubation, the same amount of Nickel Chelate Alpha donor beads (PerkinElmer, AS101M) were added to the samples for a final 1 h incubation. The AlphaLISA signals were measured using an EnVision plate reader (PerkinElmer). The data were uploaded to Screening Ultra (Dotmatics) to determine the half-maximal inhibitory concentration (IC50) for each test compound.
The same assay was developed for His-tagged BRD4 BD2 (333-460) and biotinylated histone H4K5/8/12/16(Ac) peptide at a final concentration of 20 nM.

Assay [4] concerns the target T2, His-tagged BRD4 BD1 (46-168) (Homo sapiens, UniProt O60885).
T2 construct: His-tagged BRD4 BD1 (46-168) and biotinylated histone H4K5/8/12/16(Ac) peptide
As to the kind of experiment: AlphaLISA competition assay, BRD4 BD1. It is filed as binding. Particulars: BRD4-BD1, AlphaLISA competition with biotinylated histone H4K5/8/12/16(Ac) peptide, 10 nM. The method, then:
as §8, §9

In assay [5] the target is T3, biotinylated BCL6 (5-129) (Homo sapiens, UniProt P41182).
T3 construct: biotinylated BCL6 (5-129) was diluted in 10 mM HEPES pH 7.4; biotin (biotinylated)
The experiment in a line: SPR assay for binding affinity to BCL6. The following applies: Biacore 8K, 25° C., immobilized biotinylated BCL6 (5-129). How it is done: Exemplary compounds were tested for ability to bind to B-cell lymphoma 6 (BCL6) protein.
Binding studies by surface plasmon resonance (SPR) were performed using a Biacore 8K (Cytiva) instrument at 25° C. Briefly, biotinylated BCL6 (5-129) was diluted in 10 mM HEPES pH 7.4, 150 mM NaCl, 0.05% Surfactant P20, 0.5 mM TCEP, 3% DMSO to 1-5 μg/mL and was immobilized on an SA sensor chip (Cytiva, BR100032), resulting in surface densities at 1000-3000 resonance units (RUs). Test compounds were serially diluted five times in the same buffer and were injected to the immobilized surface. Kinetic determination experiments were performed using single-cycle kinetics with 110-120 s contact time, 1000-4000 s dissociation time, 30 μL/min flow rate. Binding data were analyzed by using Biacore insight evaluation software to determine KD values for test compounds.
(In general: Surface plasmon resonance follows binding to a sensor surface in real time, without labels.)

With `CNC(=O)COc1cc2cc(Nc3nc(N4CCC5(CC4)CC(Oc4ccc(C6=N[C@@H](C)c7nnc(C)n7-c7sc(C)c(C)c76)cc4)C5)ncc3Cl)ccc2n(C)c1=O` [Compound I-28, 2-[[6-[[5-chloro-2-[2-[4-[(9S)-4,5,9,13-tetramethyl-3-thia-1,8,11,12-tetrazatricyclo[8.3.0.02,6]trideca-2 (6),4,7,10,12-pentaen-7-yl]phenoxy]-7-azaspiro[3.5]nonan-7-yl]pyrimidin-4-yl]amino]-1-methyl-2-oxo-3-quinolyl]oxy]-N-methyl-acetamide], the GI50 (in assay [1]; in assay [2]; in the assay with Farage cell line) was below 500 nM in each case.
In the case of `CNC(=O)COc1cc2cc(Nc3nc(N4CCC(CN5CCN(Cc6ccc(Oc7ccc(C(C)(C)O)cc7-c7cn(C)c(=O)c8[nH]ccc78)cc6)CC5)CC4)ncc3Cl)ccc2n(C)c1=O` [Compound I-38], the IC50 in assay [3] and in assay [4] was below 5 nM in each case. Also, the GI50 (in assay [1]; in assay [2]; in the assay with Farage cell line) was below 500 nM each time. In assay [5], this compound yielded a Kd above 100 nM.
On to `CNC(=O)COc1cc2cc(Nc3nc(N4CCC(CN5CCN(Cc6cccc(Oc7ccc(C(C)(C)O)cc7-c7cn(C)c(=O)c8[nH]ccc78)c6)CC5)CC4)ncc3Cl)ccc2n(C)c1=O` [Compound I-39], for which the concentration for half-maximal inhibition (IC50) in assay [3] was below 5 nM; in assay [4], 5 to 50 nM. The GI50 (in assay [1]; in assay [2]; in the assay with Farage cell line) was below 500 nM each time. For the same compound, the Kd in assay [5] lay within 10 to 100 nM.
For the compound `CNC(=O)COc1cc2cc(Nc3nc(N4CCC(N5CCN(Cc6cccc(Oc7ccc(C(C)(C)O)cc7-c7cn(C)c(=O)c8[nH]ccc78)c6)CC5)CC4)ncc3Cl)ccc2n(C)c1=O` [Compound I-40], the IC50 in assay [3] and in assay [4] was below 5 nM throughout. Further, the GI50 (in assay [1]; in assay [2]; with Farage cell line) was below 500 nM throughout. Besides, the Kd in assay [5] was in the range of 10 to 100 nM.
On to `CNC(=O)COc1cc2cc(Nc3nc(N4CCCC5(CN(C[C@H]6C[C@H](Oc7ccc(C(C)(C)O)cc7-c7cn(C)c(=O)c8[nH]ccc78)C6)C5)C4)ncc3Cl)ccc2n(C)c1=O` [Compound I-41], for which the values for the IC50 in assay [3] and in assay [4] were above 500 nM and below 5 nM, respectively. The concentration for 50% growth inhibition (GI50) in assay [1] was below 500 nM; in assay [2], above 3000 nM; with Farage cell line, 1500 to 3000 nM. The Kd in assay [5] was 1 to 10 nM.
For the compound `CNC(=O)COc1cc2cc(Nc3nc(N4CCCC5(CN(C[C@H]6C[C@@H](Oc7ccc(C(C)(C)O)cc7-c7cn(C)c(=O)c8[nH]ccc78)C6)C5)C4)ncc3Cl)ccc2n(C)c1=O` [Compound I-42], the IC50 is above 500 nM in assay [3] and below 5 nM in assay [4]. The GI50 in assay [1] is below 500 nM; in assay [2], above 3000 nM; in the assay on Farage cell line, 1500 to 3000 nM. Besides, the Kd in assay [5] was below 1 nM.
As for `CNC(=O)COc1cc2cc(Nc3nc(N4CCC(CN5CCCC6(C5)CN(C[C@H]5C[C@@H](Oc7ccc(C(C)(C)O)cc7-c7cn(C)c(=O)c8[nH]ccc78)C5)C6)CC4)ncc3Cl)ccc2n(C)c1=O` [Compound I-44], the IC50 in assay [3] and in assay [4] was below 5 nM throughout. Moreover, the GI50 in assay [1] is below 500 nM; in assay [2], 500 to 1500 nM; in the assay on Farage cell line it was below 500 nM. Further, the Kd in assay [5] lay within 1 to 10 nM.
As for `CNC(=O)COc1cc2cc(Nc3nc(N4CCC(CN5CCN(CC[C@H]6C[C@@H](Oc7ccc(C(C)(C)O)cc7-c7cn(C)c(=O)c8[nH]ccc78)C6)CC5)CC4)ncc3Cl)ccc2n(C)c1=O` [Compound I-46], the IC50 in assay [3] and in assay [4] was below 5 nM each time. The GI50 (in assay [1]; in assay [2]; in the assay with Farage cell line) was below 500 nM throughout. Further, in assay [5], the Kd lay within 1 to 10 nM.
On to `CNC(=O)COc1cc2cc(Nc3nc(N4CCN(CCN5CCN(Cc6cccc(Oc7ccc(C(C)(C)O)cc7-c7cn(C)c(=O)c8[nH]ccc78)c6)CC5)CC4)ncc3Cl)ccc2n(C)c1=O` [Compound I-47], for which the half-maximal inhibitory concentration (IC50) in assay [3] and in assay [4] was below 5 nM each time. In addition, the concentration for 50% growth inhibition (GI50) (in assay [1]; in assay [2]; in the assay on Farage cell line) was below 500 nM throughout. In assay [5], this compound came in with a Kd of 1 to 10 nM.
Turning to `CNC(=O)COc1cc2cc(Nc3nc(N4CCC(CN5CCC6(CC5)CC(CC5CC(Oc7ccc(C(C)(C)O)cc7-c7cn(C)c(=O)c8[nH]ccc78)C5)C6)CC4)ncc3Cl)ccc2n(C)c1=O` (stereo not drawn) [Compound I-53], the GI50 (in assay [1]; in assay [2]; in the assay on Farage cell line) was below 500 nM in each case.
